The results in this text go back to patent US20200405697A1, “Antitumor Agent” (Taiho Pharmaceutical Co., Ltd, priority 2017, published 2020).

For the test, the target named is T1, human RNR (histidine tagged human M1 and human M2 proteins) (Homo sapiens, UniProt P23921).
T1 construct: made in house; host or cells: Escherichia coli
T1 sequence (P23921 1-792): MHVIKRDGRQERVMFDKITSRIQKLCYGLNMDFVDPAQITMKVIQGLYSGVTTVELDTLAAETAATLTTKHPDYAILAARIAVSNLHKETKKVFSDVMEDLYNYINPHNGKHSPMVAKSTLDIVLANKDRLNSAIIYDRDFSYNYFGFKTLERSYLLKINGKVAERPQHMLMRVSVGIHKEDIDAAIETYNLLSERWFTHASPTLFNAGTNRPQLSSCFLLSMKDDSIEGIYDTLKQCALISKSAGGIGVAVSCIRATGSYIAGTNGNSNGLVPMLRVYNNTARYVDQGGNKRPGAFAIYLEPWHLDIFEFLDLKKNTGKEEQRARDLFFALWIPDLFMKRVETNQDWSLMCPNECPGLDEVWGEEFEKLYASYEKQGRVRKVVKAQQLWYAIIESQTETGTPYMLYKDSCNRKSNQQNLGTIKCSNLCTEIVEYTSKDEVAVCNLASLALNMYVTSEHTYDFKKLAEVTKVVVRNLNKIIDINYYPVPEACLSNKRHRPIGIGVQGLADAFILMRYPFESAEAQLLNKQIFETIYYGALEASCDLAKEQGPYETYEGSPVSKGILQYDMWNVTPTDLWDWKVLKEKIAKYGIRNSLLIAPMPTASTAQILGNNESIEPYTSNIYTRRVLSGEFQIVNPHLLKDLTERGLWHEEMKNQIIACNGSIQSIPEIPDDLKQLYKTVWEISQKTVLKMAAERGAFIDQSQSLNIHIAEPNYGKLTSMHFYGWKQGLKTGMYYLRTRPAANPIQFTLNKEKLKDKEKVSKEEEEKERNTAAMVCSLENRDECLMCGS
Kind of test: Human RNR inhibition effect (dCDP formation from CDP). Format: biochemical. Conditions: 10 μM CDP, 37° C. for 30 minutes, read-out: RNR inhibitory activity IC50. In short, it runs like this:
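His-tagged human M1 (isoform 1) and N-terminal 59-aa-truncated M2 (isoform 2), E. coli-expressed, Ni-purified, preincubated 20 min with compound (1% DMSO). Reaction with 10 μM CDP, 2 mM ATP, 0.24 mM NADPH, 6 mM DTT, 4 mM Mg acetate, 100 mM KCl, 50 mM HEPES pH 7.2, 30 min at 37° C. dCDP formed quantified by reverse-phase HPLC after heat stop.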

Turning to `COc1cc(Cl)ccc1S(=O)(=O)N[C@H](c1n[nH]c(=O)o1)[C@H](C)c1c(F)ccc(C#N)c1C` [Example 104, 4-chloro-N-((1S,2R)-2-(3-cyano-6-fluoro-2-methylphenyl)-1-(5-oxo-4,5-dihydro-1,3,4-oxadiazol-2-yl)propyl)-2-methoxybenzenesulfonamide], the IC50 is 840 nM. Turning to `Cc1ccc(F)c([C@@H](C)[C@H](NS(=O)(=O)c2ccc(Cl)c(C#N)n2)c2n[nH]c(=O)o2)c1C` [Example 105, 5-chloro-6-cyano-N-((1S,2R)-2-(6-fluoro-2,3-dimethylphenyl)-1-(5-oxo-4,5-dihydro-1,3,4-oxadiazol-2-yl)propyl)pyridine-2-sulfonamide], the IC50 is 160 nM. Consider `CC(=O)OC1(C(F)(F)F)CCOc2c1cccc2S(=O)(=O)N[C@H](c1n[nH]c(=O)o1)[C@H](C)c1c(F)ccc(C)c1C` (stereo partly drawn) [Example 106, 8-(N-((1S,2R)-2-(6-fluoro-2,3-dimethylphenyl)-1-(5-oxo-4,5-dihydro-1,3,4-oxadiazol-2-yl)propyl)sulfamoyl)-4-(tifluoromethyl)chroman-4-ylacetate], for which the IC50 is 270 nM. The figure for `Cc1ccc(F)c([C@@H](C)[C@H](NS(=O)(=O)c2ccc(Cl)c3c2C(=O)CCC3)c2n[nH]c(=O)o2)c1C` [Example 107, 4-chloro-N-((1S,2R)-2-(6-fluoro-2,3-diinethylphenyl)-1-(5-oxo-4,5-dihydro-1,3,4-oxadiazol-2-yl)propyl)-8-oxo-5,6,7,8-tetrahydronaphthalene-1-sulfonamide] is 240 nM; for `COc1c(S(=O)(=O)N[C@H](c2n[nH]c(=O)o2)[C@H](C)c2c(F)ccc(C)c2C)ccc(Cl)c1C(C)(C)OC(C)=O` [Example 108, 2-(6-chloro-3-(N-((1S,2R)-2-(6-fluoro-2,3-dimethylphenyl)-1-(5-oxo-4,5-dihydro-1,3,4-oxadiazol-2-yl)propyl)sulfamoyl)-2-methoxyphenyl)propan-2-ylacetate] it is 430 nM; for `COC(=O)c1nc(S(=O)(=O)N[C@H](c2n[nH]c(=O)o2)[C@H](C)c2c(F)ccc(C)c2C)ccc1Cl` [Example 109, methyl 3-chloro-6-(N-((1S,2R)-2-(6-fluoro-2,3-dimethylphenyl)-1-(5-oxo-4,5-dihydro-1,3,4-oxadiazol-2-yl)propyl)sulfamoyl)picolinate] it is 60 nM. The figure for `Cc1ccc(F)c([C@@H](C)[C@H](NS(=O)(=O)c2c(F)cccc2F)c2n[nH]c(=O)o2)c1C` [Example 110, 2,6-difluoro-N-((1S,2R)-2-(6-fluoro-2,3-dimethylphenyl)-1-(5-oxo-4,5-dihydro-1,3,4-oxadiazol-2-yl)propyl)benzenesulfonamide] is 960 nM; for `Cc1ccc(F)c([C@@H](C)[C@H](NS(=O)(=O)c2c(F)cc(Cl)cc2F)c2n[nH]c(=O)o2)c1C` [Example 111, 4-chloro-2,6-difluoro-N-((1S,2R)-2-(6-fluoro-2,3-dimethylphenyl)-1-(5-oxo-4,5-dihydro-1,3,4-oxadiazol-2-yl)propyl)benzenesulfonamide] it is 270 nM; for `COc1cc(Cl)cnc1S(=O)(=O)N[C@H](c1n[nH]c(=O)o1)[C@H](C)c1c(F)ccc(C)c1C` [Example 112, 5-chloro-N-((1S,2R)-2-(6-fluoro-2,3-dimethylphenyl)-1-(5-oxo-4,5-dihydro-1,3,4-oxadiazol-2-yl)propyl)-3-methoxypyridine-2-sulfonamide] it is 150 nM.

On to `Cc1ccc(F)c([C@@H](C)[C@H](NS(=O)(=O)c2ccc(Cl)c(C(=O)N3CCOCC3)n2)c2n[nH]c(=O)o2)c1C` [Example 113, 5-chloro-N-((1S,2R)-2-(6-fluoro-2,3-dimethylphenyl)-1-(5-oxo-4,5-dihydro-1,3,4-oxadiazol-2-yl)propyl)-6-(moipholine4-carbonyl)pyridine-2-sulfonamide], for which the IC50 was found to be 60 nM.

Take `Cc1ccc(F)c([C@@H](C)[C@H](NS(=O)(=O)c2ccc(Cl)c(C(=O)N3CCCC3)n2)c2n[nH]c(=O)o2)c1C` [Example 114, 5-chloro-N-((1S,2R)-2-(6-fluoro-2,3-dimethylphenyl)-1-(5-oxo-4,5-dihydro-1,3,4-oxadiazol-2-yl)propyl)-6-(pyrrolidine-1-carbonyl)pyridine-2-sulfonamide]: the IC50 was determined as 60 nM. Turning to `Cc1ccc(F)c([C@@H](C)[C@H](NS(=O)(=O)c2ccc(Cl)c(C(=O)N3CCC4(CCC4)C3)n2)c2n[nH]c(=O)o2)c1C` [Example 115, 5-chloro-N-((1S,2R)-2-(6-fluoro-2,3-dimethylphenyl)-1-(5-oxo-4,5-dihydro-1,3,4-oxadiazol-2-yl)propyl)-6-(6-azaspiro[3.4]octane-6-carbonyl)pyridine-2-sulfonamide], the IC50 is 180 nM. On to `Cc1ccc(F)c([C@@H](C)[C@H](NS(=O)(=O)c2ccc(Cl)c(C(=O)N3C4CCC3COC4)n2)c2n[nH]c(=O)o2)c1C` [Example 116, 6-(3-oxa-8-azabicyclo[3.2.1]octane-8-carbonyl)-5-chloro-N-((1S,2R)-2-(6-fluoro-2,3-dimethylphenyl)-1-(5-oxo-4,5-dihydro-1,3,4-oxadiazol-2-yl)propyl)pyridine-2-sulfonamide], for which the IC50 was determined as 70 nM.

For the compound `Cc1ccc(F)c([C@@H](C)[C@H](NS(=O)(=O)c2ccc(Cl)c(C(=O)N3CC4CCC(C3)O4)n2)c2n[nH]c(=O)o2)c1C` [Example 117, 6-(8-oxa-3-azabicyclo[3.2.1]octane-3-carbonyl)-5-chloro-N-((1S,2R)-2-(6-fluoro-2,3-dimethylphenyl)-1-(5-oxo-4,5-dihydro-1,3,4-oxadiazol-2-yl)propyl)pyridine-2-sulfonamide], the IC50 amounted to 30 nM. For the compound `COC(=O)c1cc(Cl)cnc1S(=O)(=O)N[C@H](c1n[nH]c(=O)o1)[C@H](C)c1c(F)ccc(C)c1C` [Example 118, methyl 5-chloro-2-(N-((1S,2R)-2-(6-fluoro-2,3-dimethylphenyl)-1-(5-oxo-4,5-dihydro-1,3,4-oxadiazol-2-yl)propyl)sulfamoyl)nicotinate], the IC50 came out at 340 nM.

For `COC(=O)c1cc(Br)cnc1S(=O)(=O)N[C@H](c1n[nH]c(=O)o1)[C@H](C)c1c(F)ccc(C)c1C` [Example 119, methyl 5-bromo-2-(N-((1S,2R)-2-(6-fluoro-2,3-dimethylphenyl)-1-(5-oxo-4,5-dihydro-1,3,4-oxadiazol-2-yl)propyl)sulfamoyl)nicotinate], the IC50 amounted to 450 nM.

In the case of `COc1c(S(=O)(=O)N[C@H](c2n[nH]c(=O)o2)[C@H](C)c2c(F)ccc(C)c2C)ncc(Cl)c1C(C)OC(C)=O` (stereo partly drawn) [Example 120, 1-(5-chloro-2-(N-((1S,2R)-2-(6-fluoro-2,3-dimethylphenyl)-1-(5-oxo-4,5-dihydro-1,3,4-oxadiazol-2-yl)propyl)sulfamoyl)-3-methoxypyridin-4-yl)ethylacetate], the IC50 was found to be 430 nM.

Take `CC(=O)OC1(C(F)(F)F)CCOc2c(S(=O)(=O)N[C@H](c3n[nH]c(=O)o3)[C@H](C)c3c(F)ccc(C)c3C)ccc(Cl)c21` (stereo partly drawn) [Example 123, 5-chloro-8-(N-((1S,2R)-2-(6-fluoro-2,3-dimethylphenyl)-1-(5-oxo-4,5-dihydro-1,3,4-oxadiazol-2-yl)propyl)sulfamoyl)-4-(trifluoromethyl)chroman-4-ylacetate]: the IC50 amounted to 110 nM. For `Cc1c(Br)ccc(F)c1[C@@H](C)[C@H](NS(=O)(=O)c1ccc(Cl)c2c1OCCC2=O)c1n[nH]c(=O)o1` [Example 124, N-((1S,2R)-2-(3-bromo-6-fluoro-2-methylphenyl)-1-(5-oxo-4,5-dihydro-1,3,4-oxadiazol-2-yl)propyl)-5-chloro-4-oxochroman-8-sulfonamide], the IC50 was determined as 90 nM.

Take `[2H]C([2H])([2H])C1(OC(C)=O)CCOc2c(S(=O)(=O)N[C@H](c3n[nH]c(=O)o3)[C@H](C)c3c(F)ccc(C)c3C)ccc(Cl)c21` (stereo partly drawn) [Example 129, 5-Chloro-8-(N-((1S,2R)-2-(6-fluoro-2,3-dimethylphenyl)-1-(5-oxo-4,5-dihydro-1,3,4-oxadiazol-2-yl)propyl)sulfamoyl)-4-methyl-d3-chroman-4-yl Acetate]: the IC50 amounted to 100 nM. For `COc1cc(Br)ccc1S(=O)(=O)N[C@H](c1n[nH]c(=O)o1)[C@H](C)c1cccc2c1CCC2` [Example 137, 4-bromo-N-((1S,2R)-2-(2,3-dihydro-1H-inden-4-yl)-1-(5-oxo-4,5-dihydro-1,3,4-oxadiazol-2-yl)propyl)-2-methoxybenzenesulfonamide], the IC50 is 590 nM. As to `CC(=O)OC(C)c1nc(S(=O)(=O)N[C@H](c2n[nH]c(=O)o2)[C@H](C)c2cccc3c2CCC3)ccc1Cl` (stereo partly drawn) [Example 142, 1-(3-chloro-6-(N-((1S,2R)-2-(2,3-dihydro-1H-inden-4-yl)-1-(5-oxo-4,5-dihydro-1,3,4-oxadiazol-2-yl)propyl)sulfamoyl)pyridin-2-yl)ethylacetate], the IC50 came to 210 nM.
